Earlier results, collected in patent US20060251690A1, “Skin enrichment using CoQ10 as the delivery system” (Zymes, LLC, priority 2005, published 2006).
Like-named read-outs stand apart in the source and are kept apart here.

Experiments:
[1] = human skin (in vitro)
[2] = not given; remark: listed apart in the source
[3] = after chronic topical use, combined with other fat and water soluble ingredients
[4] = not given; remark: listed apart in the source

O=C(O)CCCCCCCC(=O)O [azelaic acid]
half-life after application: 12 h
applied dose found in the epidermis and dermis [1]: Up to 10%

COC1=C(OC)C(=O)C(C/C=C(\C)CC/C=C(\C)CC/C=C(\C)CC/C=C(\C)CC/C=C(\C)CC/C=C(\C)CC/C=C(\C)CC/C=C(\C)CC/C=C(\C)CCC=C(C)C)=C(C)C1=O [CoQ10, 2,3 dimethoxy-5 methyl-6 decaprenyl benzoquinone]
half life [2]: > 30 h

O=C1O[C@H]([C@@H](O)CO)C(O)=C1O [vitamin C]
half life ([2]; autoxidation named as cause): 0.5 h

COc1ccc(-c2ccc3cc(C(=O)O)ccc3c2)cc1C12CC3CC(CC(C3)C1)C2 [adapalene]
absorption of adapalene [3]: < 0.25 ng/mL
solubility in polar solvents such as ethanol ([4]; ethanol): only sparingly soluble
solubility in water ([4]; water): virtually insoluble
